Results as given in patent publication US4818764A, “Imidazoline derivative and method of treating depression therewith” (priority 1980, dated 1989).
“Also recorded” adds a separate entry of the source. Counter-ions that a name gives are not always drawn.

Assays:
[1] = tested on: presynaptic α-adrenoreceptor; test: Reversal of guanabenz block of the anococcygeus muscle of the pithed rat, intravenous; assay type: in vivo; settings: for Intravenous dose of antagonist causing 50% reversal of guanabenz block of anococcygeus muscle: pithed rat, guanabenz acetate 30 μg/kg i.v.
DOCA hypertensive rats = test: Effect on blood pressure and heart rate of conscious DOCA hypertensive rats; assay type: in vivo, rat
From the text: Results are given in Table 5 in terms of peak percentage fall in B.P.

[2] = tested on: presynaptic α-adrenoreceptor; test: Presynaptic α-adrenoreceptor antagonism in the pithed rat: vas deferens, intravenous activity; assay type: in vivo; settings: for i.v. dose of antagonist causing 50% reversal of clonidine block on vas deferens: pithed rat, clonidine 100 μg/kg i.v., cumulative i.v. dosing, mean of minimum 4 rats
Description: This test model extends the evaluation of presynaptic α-adrenoreceptor antagonism versus clonidine on the rat vas deferens to the in vivo situation. Blood pressure and stimulation induced contractions of the vas deferens were monitored in pithed rats using the method of Brown, J., Doxey, J. C., Handley, S. and Virdee, N., Recent Advances in the Pharmacology of Adrenoceptors, Elsevier North Holland, 1978. Clonidine (100 μg/kg, i.v.) causes a prolonged pressor response and a prolonged inhibition of vas deferens contractions. The test drugs were injected intravenously in a cumulative dosing schedule and their abilities to reverse the inhibition of hypogastric nerve stimulation reflected their presynaptic antagonism.

[3] = target: T1, presynaptic α2-adrenoreceptor (rat vas deferens) (Rattus norvegicus, UniProt P22909); test: Presynaptic α-adrenoreceptor antagonism vs clonidine in isolated rat vas deferens (0.1 Hz stimulation); assay type: cell-based
T1 construct: Pre- and postsynaptic α-adrenoreceptor antagonism in isolated tissue experiments; from tissue; host or cells: isolated rat vas deferens
T1 sequence (P22909 1-465): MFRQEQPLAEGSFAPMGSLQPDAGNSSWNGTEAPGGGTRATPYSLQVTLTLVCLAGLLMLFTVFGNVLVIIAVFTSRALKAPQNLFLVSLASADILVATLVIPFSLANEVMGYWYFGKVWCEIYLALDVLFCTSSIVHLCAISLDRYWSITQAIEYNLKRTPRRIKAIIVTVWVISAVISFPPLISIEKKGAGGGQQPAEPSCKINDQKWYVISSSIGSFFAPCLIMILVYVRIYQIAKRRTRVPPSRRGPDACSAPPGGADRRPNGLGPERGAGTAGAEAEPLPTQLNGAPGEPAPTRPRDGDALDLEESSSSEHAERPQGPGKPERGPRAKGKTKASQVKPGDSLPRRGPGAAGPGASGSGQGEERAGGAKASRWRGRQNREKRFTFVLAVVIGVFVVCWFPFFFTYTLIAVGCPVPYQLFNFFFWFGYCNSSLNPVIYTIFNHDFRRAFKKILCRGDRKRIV
From the text: (§1) This in vitro model is particularly useful as an initial screen for studying presynaptic activity in isolation since the physiological nature of the vas deferens tissue is such that the post synaptic receptors located therein are particularly inaccessible to exogenous agents. In consequence an alternative tissue, the rat anococcygeus muscle is used to establish postsynaptic α-adrenoreceptor activity. Antagonism of noradrenaline contractions is used to determine pA2 values at postsynaptic α-adrenoreceptors. The ratio of presynaptic α-adrenoreceptor antagonism (versus clonidine on the rat vas deferens) to postsynaptic α-adrenoreceptor antagonism (versus noradrenaline contractions on the rat anococcygeus muscle) is used to assess adrenoreceptor selectivity.

[4] = tested on: postsynaptic α-adrenoreceptors (rat anococcygeus muscle); test: Postsynaptic α-adrenoreceptor antagonism vs noradrenaline contractions in isolated rat anococcygeus muscle; assay type: cell-based; settings: mean of minimum 5 experiments, "<" means inactive at a concentration which would have given the pA indicated
From the text: as §1

[5] = tested on: postsynaptic α-adrenoreceptor; test: Pressor responses in the pithed rat on intravenous administration; assay type: in vivo; settings: 1-10 mg/kg, i.v.
[6] = tested on: clonidine-induced hypothermia; test: Antagonism of clonidine-induced hypothermia in mice; assay type: in vivo
[7] = tested on: presynaptic α-adrenoreceptor; test: Presynaptic α-adrenoreceptor antagonism in the pithed rat: vas deferens, oral activity; assay type: in vivo; settings: 1.0 and 5.0 mg/kg
From the text: Thirty minutes after oral administration, the rats were pithed so as to allow electrically-induced contractions of the vas deferens to be studied in situ.

[8] = tested on: postsynaptic α-adrenoreceptor; test: Antagonism of clonidine postsynaptic effects (blood pressure increases) after oral dosing, pithed rat; assay type: in vivo
[9] = tested on: presynaptic α-adrenoreceptor; test: Reversal of clonidine inhibition of the anococcygeus muscle of the pithed rat, intravenous; assay type: in vivo; settings: 0.3-1.0 mg/kg, i.v.; 1 Hz stimulation
From the text: In contrast to the rat vas deferens, both the pre- and postsynaptic adrenoreceptors of the rat anococcygeus muscle are readily accessible to exogenously applied agents and therefore this test can be used to distinguish selective presynaptic α-adrenoreceptor antagonists from non-selective agents. Contractions of the rat anococcygeus muscle induced by low frequency (1 Hz) electrical stimulation of spinal sympathetic outflow are inhibited by low doses of clonidine. Only selective presynaptic α-adrenoreceptor antagonists will reverse the inhibitory effects of clonidine.

Cc1ccc(N(CC2=NCCN2)c2cccc(O)c2)cc1 [Phentolamine]
presynaptic α-adrenoreceptor antagonist activity (in words) ([1]; cumulative i.v. dose of 1.4 mg/kg): devoid of presynaptic α-adrenoreceptor antagonist activity | blood pressure effect (in words) (DOCA hypertensive rats; 1.0 mg/kg, oral): reduced blood pressure | peak percentage fall in B.P. (DOCA hypertensive rats; 1.0 mg/kg, oral): -16% | peak percentage fall in B.P. (DOCA hypertensive rats; 5.0 mg/kg, oral): -24% | heart rate effect (in words) (DOCA hypertensive rats; 20 mg/kg, oral): reflexly elevated | peak percentage fall in B.P. (DOCA hypertensive rats; 20.0 mg/kg, oral): -41% | heart rate effect (in words) (DOCA hypertensive rats; two smaller doses (1.0 and 5.0 mg/kg), oral): not greatly affected

COC(=O)[C@@H]1[C@H]2C[C@H]3c4[nH]c5ccccc5c4CCN3C[C@@H]2CC[C@@H]1O [Yohimbine HCl]
Intravenous dose of antagonist causing 50% reversal of guanabenz block of anococcygeus muscle [1]: 0.280 mg/kg | i.v. dose of antagonist causing 50% reversal of clonidine block on vas deferens [2]: 0.86 mg/kg

CN1CCN2c3ccccc3Cc3ccccc3C2C1 (stereo not drawn) [Mianserin]
maximum reversal of the inhibitory effects of clonidine on hypogastric nerve stimulation ([2]; cumulative i.v. dose 4.4 mg/kg): 36%

CC1(C2=NCCN2)Oc2ccccc2O1 [Compound B, 2-[2-(2-methyl-1,3-benzodioxyl)]-2-imidazoline hydrochloride]
Kb ([3]; isolated rat vas deferens, 0.1 Hz, mean of minimum 5 experiments, "<" means inactive at a concentration which would have given the pA indicated, read-out: Presynaptic antagonism pA2 vs Clonidine (vas deferens) (converted)): 631 nM | Pre/postsynaptic ratio ([3]; presynaptic antagonism (vs clonidine, vas deferens) to postsynaptic antagonism (vs noradrenaline, anococcygeus)): > 67 | maximum reversal of the inhibitory effects of clonidine on hypogastric nerve stimulation ([2]; cumulative i.v. dose 14.4 mg/kg): 66% | i.v. dose of antagonist causing 50% reversal of clonidine block on vas deferens [2]: 5.60 mg/kg | Postsynaptic antagonism pA2 vs Noradrenaline (anococcygeus) [4]: < 4.4 | pressor responses / postsynaptic α-adrenoreceptor agonist activity (in words) [5]: pressor responses in the pithed rat were seen | effect on clonidine-induced hypothermia (in words) ([6]; 30 mg/kg i.v.): potentiated the clonidine-induced hypothermia | reversal of clonidine-induced hypothermia (in words) ([6]; 1-10 mg/kg, i.v.): partial reversal | reversal of clonidine-induced hypothermia compared with vehicle (significance, in words) ([6]; 1-10 mg/kg, i.v.): not significantly different from animals treated with vehicle | blood pressure effect (in words) (DOCA hypertensive rats; 1.0 mg/kg, oral): significant antihypertensive effect | peak percentage fall in B.P. (DOCA hypertensive rats; 1.0 mg/kg, oral): -15% | peak percentage fall in B.P. (DOCA hypertensive rats; 5.0 mg/kg, oral): -25% | peak percentage fall in B.P. (DOCA hypertensive rats; 20.0 mg/kg, oral): -14% | maximum hypotensive effect following 20 mg/kg (in words) (DOCA hypertensive rats; 20 mg/kg, p.o. versus 5 mg/kg, p.o.): less than that produced by 5 mg/kg, p.o. compound B | dose-relation of the falls in blood pressure (in words) (DOCA hypertensive rats; 1-20 mg/kg, p.o.): not dose-related

CN1CCN2c3ccccc3Cc3ccccc3C2C1 (stereo not drawn) [Mianserin HCl]
i.v. dose of antagonist causing 50% reversal of clonidine block on vas deferens [2]: > 4.4 mg/kg

c1ccc2c(c1)OCC(C1=NCCN1)O2 (stereo not drawn) [Compound A, 2-[2-(1,4-Benzodioxanyl)]-2-imidazoline hydrochloride]
presynaptic α-adrenoreceptor antagonist potency, rank among compounds studied ([3]; Table 1): the most potent presynaptic α-adrenoreceptor antagonist | presynaptic α-adrenoreceptor antagonist potency, rank among compounds studied ([1]; pithed rat anococcygeus, i.v.): the most potent presynaptic α-adrenoreceptor antagonist studied | Intravenous dose of antagonist causing 50% reversal of guanabenz block of anococcygeus muscle [1]: 0.021 mg/kg | presynaptic α-adrenoreceptor antagonist potency, rank among compounds studied ([2]; pithed rat vas deferens, i.v., Table 2): clearly the most potent presynaptic α-adrenoreceptor antagonist of those studied | i.v. dose of antagonist causing 50% reversal of clonidine block on vas deferens [2]: 0.009 mg/kg | Postsynaptic antagonism pA2 vs Noradrenaline (anococcygeus) [4]: 6.2 | antagonism of the presynaptic action of clonidine (in words) [7]: dose-dependent competitive antagonism | inhibition of the clonidine postsynaptic effects (blood pressure increases) ([8]; 1.0 mg/kg p.o.): No inhibition | inhibition of the clonidine postsynaptic effects (blood pressure increases) ([8]; 5.0 mg/kg p.o.): some antagonism was observed | reversal of clonidine-induced hypothermia (in words) ([6]; 0.1-1.0 mg/kg, i.v.): statistically significant dose-related reversal | peak percentage fall in B.P. (DOCA hypertensive rats; 1.0 mg/kg, oral): -4% | blood pressure effect (in words) (DOCA hypertensive rats; 1.0 mg/kg, oral, hydrochloride): did not significantly alter blood pressure; also recorded: does not possess antihypertensive activity | peak percentage fall in B.P. (DOCA hypertensive rats; 5.0 mg/kg, oral): -28% | peak percentage fall in B.P. (DOCA hypertensive rats; 20.0 mg/kg, oral): -39% | mean arterial blood pressure effect (in words) (DOCA hypertensive rats; 5.0 and 20.0 mg/kg, oral, hydrochloride): dose-related falls in mean arterial blood pressure | heart rate effect (in words) (DOCA hypertensive rats; three doses (1.0, 5.0 and 20.0 mg/kg), oral): No significant effect on heart rate

COC(=O)[C@@H]1[C@H]2C[C@H]3c4[nH]c5ccccc5c4CCN3C[C@@H]2CC[C@@H]1O [Yohimbine]
reversal of the inhibitory action of clonidine on the anococcygeus muscle [9]: fully reversed

Cc1ccc(N(CC2=NCCN2)c2cccc(O)c2)cc1 [Phentolamine mesylate]
Intravenous dose of antagonist causing 50% reversal of guanabenz block of anococcygeus muscle [1]: > 1.4 mg/kg | i.v. dose of antagonist causing 50% reversal of clonidine block on vas deferens [2]: 0.12 mg/kg
